Settings in all cases: Homo sapiens, 48 h, read-out: Inhibitory effect (%) on tumor growth
In test [1] the test system is Head and neck cancer. As to the kind of experiment: cells.
Experimental: (§1) A plurality of types of human tumor cells were cultured in a 5% CO2 incubator at 37° C. and digested with trypsin when the density was 90% or above. The cells were resuspended in a culture solution and counted, and the cell concentration was adjusted to 2×10^4 cells/mL. The cell suspension was inoculated into a 96-well plate with 100 μL per well, and then cultured overnight in a 5% CO2 incubator at 37° C. After the cells completely adhered to the wall, each polypeptide according to the present invention was added as an administration group, and the culture solution without any drug was used as a blank control group. The solutions were diluted to 1 μmol/L by using a diluent. Each diluent was separately added to the 96-well plate with 100 per well, and the cells continued to be cultured in a 5% CO2 incubator for 48 hours at 37° C. Then 20 μL of MTT was added, and the cells continued to be cultured for 4 hours. The medium was sucked, and 100 μL of DMSO was added to each well for dissolution. Absorbance was measured by a microplate reader at a detection wavelength of 570 nm and a reference wavelength of 630 nm, and the growth inhibition rate was calculated. The formula was as follows: tumor growth inhibition rate (%)=(1−absorbance of the administration group/absorbance of the blank group)*100%. The experiment was repeated independently for 3 times.
The subject of test [2] is Brain cancer. Put plainly: cells.
Experimental: as §1
The subject of test [3] is Esophageal cancer. As to the kind of experiment: cells.
Experimental: as §1
Test [4] has as its system Pancreatic cancer. Put plainly: cells.
Experimental: as §1
Test [5] relates to Thyroid cancer. As to the kind of experiment: cells.
Experimental: as §1
Test [6] relates to Liver cancer. As to the kind of experiment: cells.
Experimental: as §1
Test [7] relates to Breast cancer. As to the kind of experiment: cells.
Experimental: as §1
The test system of test [8] is Gastric cancer. As to the kind of experiment: cells.
Experimental: as §1
Test [9] concerns Kidney cancer. As to the kind of experiment: cells.
Experimental: as §1
In test [10] the test system is Colorectal cancer. As to the kind of experiment: cells.
Experimental: as §1
Test [11] deals with Ovarian cancer. As to the kind of experiment: cells.
Experimental: as §1
Test [12] deals with Cervical cancer. As to the kind of experiment: cells.
Experimental: as §1
Test [13] has as its system Prostate cancer. Put plainly: cells.
Experimental: as §1
In test [14] the test system is Melanoma. As to the kind of experiment: cells.
Experimental: as §1
Test [15] relates to Hemangioma. Put plainly: cells.
Experimental: as §1
Test [16] deals with Sarcoma. Put plainly: cells.
Experimental: as §1
In test [17] the test system is Lung cancer. As to the kind of experiment: cells.
Experimental: as §1
For test [18], the system named is Uterus cancer. Put plainly: tissue or blood.
Experimental: as §1

Each structure is given as a SMILES string.

Turning to `CC(=O)O[C@@]12CO[C@@H]1C[C@H](O)[C@@]1(C)C(=O)[C@H](O)C3=C(C)[C@@H](OC(=O)[C@H](O)[C@@H](NC(=O)OC(C)(C)C)c4ccccc4)C[C@@](O)([C@@H](OC(=O)c4ccccc4)[C@H]21)C3(C)C` [Docetaxel], the inhibition at 1 µM is 62.5 ± 2.12% in [1]; 68.1 ± 10.3% in test [2]; 64.4 ± 8.06% in test [3]; 76.7 ± 10.1% in test [4]; 73.2 ± 19.3% in test [5]; 74.2 ± 11.7% in test [6]. Also, the inhibition at 1 µM was 65.1 ± 10.7% in test [7]; 74.2 ± 6.38% in test [8]; 75.5 ± 10.2% in test [9]; 53.5 ± 10.4% in test [10]; 62.8 ± 20.2% in test [11]; 66.6 ± 11.3% in [12]. Besides, the inhibition at 1 µM in [13] turned out to be 78.4 ± 4.21%; in test [14], 68.4 ± 6.23%; in test [15], 78.8 ± 6.16%; in [16], 62.5 ± 8.75%; in [17], 73.3 ± 7.03%; in test [18], 57.2 ± 12.3%.

(Values after US20220332763A1, “FUSED POLYPEPTIDE AND USE THEREOF” (NANJING ANJI BIOLOGICAL TECHNOLOGY CO., LTD., priority 2019, published 2022).)
